Here are results for two compounds from publication PMC7700029, “Repurposing Napabucasin as an Antimicrobial Agent against Oral Streptococcal Biofilms” (BioMed Research International, 2020).

Values after ≈ are worked out from the molar mass of the structure shown.

The test system of series [1] is Streptococcus gordonii DL1. In words: Bacterial susceptibility test, microdilution in BHI (MIC/MBC). The class given is cell-based. The settings on record: S. gordonii, planktonic cells. The procedure: (§1) Streptococcus mutans UA159, Streptococcus gordonii DL1, and Streptococcus sanguinis ATCC 10556 were kindly provided by the State Key Laboratory of Oral Diseases (Sichuan University, Chengdu, China). S. mutans, S. gordonii, and S. sanguinis were routinely grown at 37°C under aerobic condition (5% CO2) in brain heart infusion broth (BHI; Difco, Sparks, MD). Inoculum for the experiment was adjusted to 1 × 10^8CFU/mL for S. mutans, S. gordonii, and S. sanguinis based on the OD600 nm versus CFU/mL graph of each bacterium and further 1 : 100 diluted in the growth culture. When needed, medium was supplemented with 1% sucrose (designated BHIS). The minimum inhibitory concentration (MIC) and minimum bactericidal concentration (MBC) of NAP against S. mutans, S. gordonii, and S. sanguinis were determined by a microdilution method in BHI, as described previously. The concentrations of NAP ranged from 0.97 to 1000 μg/mL (twofold dilutions). BHI broth containing equivalent DMSO (1% to 0.001%, v/v) was used as a solvent control and ran simultaneously to control for the possible growth inhibition caused by the added DMSO. CHX was used as a positive control, cell control (test bacteria and BHI broth) was used as a negative control, and BHI broth was used as a blank control.
A general note: Broth dilution looks for growth in wells or tubes with falling amounts of substance.

In series [2] the test system is Streptococcus mutans UA159. Described as above. The class given is cell-based. Particulars: S. mutans, planktonic cells. The procedure: as §1
Series [3] deals with Streptococcus sanguinis ATCC 10556. The description is as above. The class given is cell-based. The settings on record: ATCC10556, S. sanguinis, planktonic cells. The procedure: as §1
The subject of series [4] is S. mutans biofilm. In words: Biofilm formation inhibition, crystal violet (MBIC). The class given is cell-based, Streptococcus mutans. Particulars: 24 h, 90% or more inhibition of biofilm formation. As for the experimental part:
(§2) The minimum biofilm inhibition concentration (MBIC) was used to evaluate the effect of NAP on biofilm formation. S. mutans, S. gordonii, or S. sanguinis (1 × 10^7CFU/mL, 10 μL/well) were grown in BHIS with twofold serial dilution of NAP (200 μL/well) ranging from 0.12 to 125 μg/mL at 37°C for 24 h. A parallel study was also performed with BHIS as a negative control. Then, the supernatants from the wells were decanted, and the adherent biofilm was washed three times with PBS to remove the planktonic cells. Fixed with methanol for 15 min and air-dried at room temperature, the biofilm was stained with 0.1% (wt/vol) crystal violet (Sigma) for 5 min, rinsed with deionized water until blank control wells were colorless, and added 200 μL of 95% ethanol to each crystal violet-stained well. Subsequently, the plate was rocked 30 min at room temperature, and the absorbance at 595 nm was recorded. The percentage of inhibition was calculated using the equation: (A595ofnegativecontrol − A595ofthetestgroup)/A595ofnegativecontrol × 100%.

The subject of series [5] is S. sanguinis biofilm. The series is described as above. The class given is cell-based, Streptococcus sanguinis. The settings on record: 24 h, 90% or more inhibition of biofilm formation. The procedure:
as §2

The test system of series [6] is S. mutans biofilm. Description: Reduction of 1-day-developed biofilm, crystal violet (MBRC). The class given is cell-based, Streptococcus mutans. Particulars: S. mutans 1-day-developed biofilm, 24 h, 90% or more reduction. As for the experimental part: (§3) The effect of NAP on the 1-day-developed biofilm was examined by the minimum biofilm reduction concentration (MBRC). S. mutans, S. gordonii, or S. sanguinis (1 × 10^7CFU/mL, 200 μL/well) in BHIS was added to a 96-well polystyrene tissue culture plate. After anaerobic incubation at 37°C for 24 h, the supernatants were removed and washed with PBS three times without disrupting the integrity of biofilms. Fresh BHIS containing NAP ranging from 0.12 to 125 μg/mL were added to each well and incubated at 37°C for 24 h. The negative control was biofilms in BHIS without NAP. The biofilm was fixed, air-dried, stained, and quantified as described above.

A further series relates to S. gordonii biofilm. The description is as above. The class given is cell-based, Streptococcus gordonii. Particulars: S. gordonii 1-day-developed biofilm, 24 h, 90% or more reduction. As for the experimental part: as §3
Series [7] concerns S. sanguinis biofilm. Described as above. The class given is cell-based, Streptococcus sanguinis. The settings on record: S. sanguinis 1-day-developed biofilm, 24 h, 90% or more reduction. As for the experimental part: as §3
The subject of series [8] is oral streptococcal multispecies biofilms. In words: Multispecies biofilm composition by FISH and qPCR. Particulars: 62.5 μg/mL NAP, 5 min three times per day for 3 days; for total amount of streptococci: 0.2% CHX. The class given is cell-based, S. mutans, S. gordonii, S. sanguinis. As for the experimental part: The multispecies biofilms were cultivated in accordance with a previous study. Overnight cultures of S. mutans, S. gordonii, and S. sanguinis were simultaneously inoculated (inoculum ratio = 1 : 1 : 1). The chemotaxis chamber μ-Slide, which has extremely low values of birefringence and autofluorescence, was used for bacterial culture and confocal microscopy. Bacterial suspensions (1 × 10^5CFU/mL for each strain) were mixed in 300 μL BHI containing 1% sucrose (BHIS) in the μ-Slide (8 wells, 80826, Ibidi) at 37°C for 24 h. Then, biofilms were exposed to PBS, 62.5 μg/mL NAP, and 0.2% CHX for 3 days (5 min, three times per day). This short-term repeated treatment was to simulate the daily exposure to the mouth rinses. For fluorescent in situ hybridization imaging, biofilms were fixed in 4% paraformaldehyde overnight and investigated by species-specific probes. The multispecies biofilms were imaged with a confocal laser scanning microscope (FV1000, Olympus, Tokyo, Japan). Total DNA of biofilms were isolated and purified using a TIANamp Bacteria DNA kit (TIANGEN, Beijing, China). The purity and concentration of DNA were detected with a NanoDrop 2000 spectrophotometer (Thermo Scientific, Waltham, MA, USA). The extracts were stored at -20°C until use. TaqMan real-time polymerase chain reaction (Life Technologies, Carlsbad, CA, USA) was used to quantify the absolute number of S. mutans, S. gordonii, and S. sanguinis as described by the manufacturer (Takara, Dalian, China).
On the technique in general: Real-time PCR tracks product formation cycle by cycle.

Details of series [9]: method as in PMID 28573435, PMID 31241371. Particulars: orally 240 mg twice a day, patients with advanced malignancies; cited from earlier work.

For the compound `[H]/N=C(\N/C(=N/[H])NCCCCCCNC(=N)NC(=N)Nc1ccc(Cl)cc1)Nc1ccc(Cl)cc1` [CHX, Chlorhexidine], the MBC is 7.81 µg/mL (≈ 15.5 µM) in series [1], 7.81 µg/mL (≈ 15.5 µM) in [2] and 3.91 µg/mL (≈ 7.74 µM) in [3]. The MIC is 3.91 µg/mL (≈ 7.74 µM) in series [1], 1.95 µg/mL (≈ 3.86 µM) in [2] and 0.49 µg/mL (≈ 0.969 µM) in series [3]. Besides, the MBIC worked out at 0.98 µg/mL in the series with S. mutans biofilm [4] and 1.95 µg/mL with S. sanguinis biofilm [5]. For the same compound, the MBRC in the series on S. mutans biofilm [6] is 62.50 µg/mL; with S. gordonii biofilm it was 15.63 µg/mL; in the series with S. sanguinis biofilm [7] it was 3.91 µg/mL. Further, the “total amount of streptococci” value in series [8] is “significantly reduced the total amount of streptococci”.

With `CC(=O)c1cc2c(o1)C(=O)c1ccccc1C2=O` [NAP, 2-acetylfuro-1,4-naphathoquinone], the MBC in series [1] is 0.98 µg/mL (≈ 4.08 µM); in [2], 15.6 µg/mL (≈ 65.1 µM); in series [3], 15.6 µg/mL (≈ 65.1 µM). The figures for the MIC in series [1], in [2] and in series [3] were 0.49 µg/mL (≈ 2.04 µM), 3.91 µg/mL (≈ 16.3 µM) and 0.49 µg/mL (≈ 2.04 µM), respectively. Also, the MBIC in the series on S. mutans biofilm [4] and in the series on S. sanguinis biofilm [5] was 1.95 µg/mL throughout. Also, the MBRC was 62.50 µg/mL with S. mutans biofilm [6], 15.63 µg/mL in the series on S. gordonii biofilm and 3.91 µg/mL in the series on S. sanguinis biofilm [7]. In addition, the “total amount of streptococci” value in series [8] is given as “significantly reduced the total amount of streptococci”. The multispecies biofilm composition result in series [8] is “inhibited S. mutans and S. sanguinis but increased the proportion of the commensal S. gordonii”. Besides, the adverse events entry in series [9] is “generally mild”.

By MBC is commonly meant the smallest concentration meeting the test's criterion for killing. A lower MBC goes with more potent killing. The MIC is the smallest concentration in the dilution series that meets the test's criterion for growth inhibition. A high value points to weaker potency.
